Experimental data published in patent publication US20260193271A1, “PAN-KRAS INHIBITOR COMPOUND” (ADLAI NORTYE BIOPHARMA CO., LTD., priority 2022, published 2026).

Tests used:
AsPC-1 (G12D) = assay: In vitro cell proliferation inhibition test (CellTiter-Glo), AsPC-1; format: cell-based; conditions: KRAS (p.G12D), 72 h co-incubation
Source text: (§1) Test Example 1: In Vitro Cell Proliferation Inhibition Test
(§2) Due to the diversity of RAS mutations and in order to evaluate the activity of compounds in different RAS mutation cell lines, we selected KRAS^WT, KRAS^G12C, KRAS^G12D, KRAS^G12V and BRAF mutation cell lines (see the table below) for in vitro activity evaluation and screening of compounds.
(§3) Protocol: CellTiter-Glo® Cell Luminescent Viability Assay (Promega)
(§4) According to the doubling time of different cell lines, different numbers of cells (1000-5000 cells/well) were seeded in 96-well plates containing 180 μl of corresponding culture medium and cultured overnight in a cell culture incubator at 37° C. with 5% CO2. On the second day, the test compound was pre-diluted 3-fold with culture medium, with the highest concentration being 100 μM, for a total of 10 concentration gradients; then 20 μl of culture medium containing different concentrations of the compound was added to the cells in the 96-well plate to ensure that the final concentration of the compound was up to 10 μM, with 10 concentration gradients of 3-fold dilution. After the cells and compounds were co-incubated for 72 h, the 96-well plate was removed from the incubator and equilibrated at room temperature for 30 min. Then, 25 μl of CellTiter-Glo® Reagent was added to each well and mixed thoroughly. The mixture was incubated at room temperature for 10 min, and then 100 μl of the sample was transferred to a white 96-well plate (OptiPlate™-96, PerkinElmer). The […] signal value was read using a multi-function microplate reader (SpectraMax® i3x, Molecular devices). The signal values were then standardized, and the curve was fitted using a four-parameter regression equation to calculate the half maximal inhibitory concentration (IC50) of the compound on the cell line.

SW480 (G12V) = assay: In vitro cell proliferation inhibition test (CellTiter-Glo), SW480; format: cell-based; conditions: Homo sapiens, SW480 colon cell line, KRAS (p.G12V), 72 h co-incubation
Source text: as §1, §2, §3, §4

[1] = Homo sapiens, ASPC1, AsPC-1 pancreas cell line

Row | Compound | IC50 (AsPC-1 (G12D); [1]) [nM] | IC50 (SW480 (G12V)) [nM] | IC50 (AsPC-1 (G12D); AsPC-1 pancreas cell line) [nM]
1 | CCn1c(-c2cc(-c3ccc(CN4CCOCC4)cc3)cnc2[C@H](C)OC)c2c3cc(ccc31)-c1csc(n1)C[C@H](NC(=O)[C@H]1[C@H](C)[C@@H]1C)C(=O)N1CCC[C@H](N1)C(=O)OCC(C)(C)C2 (atropisomer, axis not shown) [Compound 1, (1r,2R,3S)-N-((6^3S,4S,Z)-1^1-ethyl-1^2-(2-((S)-1-methoxyethyl)-5-(4-(morpholinomethyl)phenyl)pyridin-3-yl)-10,10-dimethyl-5,7-dioxo-6^1,6^2,6^3,6^4,6^5,6^6-hexahydro-1^1H-8-oxa-2(4,2)-thiazola-1(5,3)-indola-6(1,3)-pyridazinacycloundecaphane-4-yl)-2,3-dimethylcyclopropane-1-carboxamide] | 1.1 | 1.3 | –
2 | CCn1c(-c2cc(-c3ccc4c(c3)CN(C)C4)cnc2[C@H](C)OC)c2c3cc(ccc31)-c1csc(n1)C[C@H](NC(=O)[C@H]1C[C@@H]1C)C(=O)N1CCC[C@H](N1)C(=O)OCC(C)(C)C2 (atropisomer, axis not shown) [Compound 2, (1S,2S)-N-((6^3S,4S,Z)-1^1-ethyl-1^2-(2-((S)-1-methoxyethyl)-5-(2-methylisoindolin-5-yl)pyridin-3-yl)-10,10-dimethyl-5,7-dioxo-6^1,6^2,6^3,6^4,6^5,6^6-hexahydro-1^1H-8-oxa-2(4,2)-thiazola-1(5,3)-indola-6(1,3)-pyridazinacycloundecaphane-4-yl)-2-methylcyclopropane-1-carboxamide] | 21 | 670 | –
3 | CCn1c(-c2cc(-c3ccc4c(c3)CCN(C)C4)cnc2[C@H](C)OC)c2c3cc(ccc31)-c1csc(n1)C[C@H](NC(=O)[C@H]1[C@H](C)[C@@H]1C)C(=O)N1CCC[C@H](N1)C(=O)OCC(C)(C)C2 (atropisomer, axis not shown) [Compound 3, (1r,2R,3S)-N-((6^3S,4S,Z)-1^1-ethyl-1^2-(2-((S)-1-methoxyethyl)-5-(2-methyl-1,2,3,4-tetrahydroisoquinolin-6-yl)pyridin-3-yl)-10,10-dimethyl-5,7-dioxo-6^1,6^2,6^3,6^4,6^5,6^6-hexahydro-1^1H-8-oxa-2(4,2)-thiazola-1(5,3)-indola-6(1,3)-pyridazinacycloundecaphane-4-yl)-2,3-dimethylcyclopropane-1-carboxamide] | 0.18 | 0.33 | –
4 | CCn1c(-c2cc(-c3cccc(CN(C)C)c3)cnc2[C@H](C)OC)c2c3cc(ccc31)-c1csc(n1)C[C@H](NC(=O)[C@H]1[C@H](C)[C@@H]1C)C(=O)N1CCC[C@H](N1)C(=O)OCC(C)(C)C2 (atropisomer, axis not shown) [Compound 4, (1r,2R,3S)-N-((6^3S,4S,Z)-1^2-(5-(3-((dimethylamino)methyl)phenyl)-2-((S)-1-methoxyethyl)pyridin-3-yl)-1^1-ethyl-10,10-dimethyl-5,7-dioxo-6^1,6^2,6^3,6^4,6^5,6^6-hexahydro-1^1H-8-oxa-2(4,2)-thiazola-1(5,3)-indola-6(1,3)-pyridazinacycloundecaphane-4-yl)-2,3-dimethylcyclopropane-1-carboxamide] | 2.6 | 1.6 | –
5 | CCn1c(-c2cc(-c3ccc(CN4CCOCC4)nc3)cnc2[C@H](C)OC)c2c3cc(ccc31)-c1csc(n1)C[C@H](NC(=O)[C@H]1C[C@@H]1C)C(=O)N1CCC[C@H](N1)C(=O)OCC(C)(C)C2 (atropisomer, axis not shown) [Compound 5, (1S,2S)-N-((6^3S,4S,Z)-1^1-ethyl-1^2-(6-((S)-1-methoxyethyl)-6′-(morpholinomethyl)-[3,3′-bipyridin]-5-yl)-10,10-dimethyl-5,7-dioxo-6^1,6^2,6^3,6^4,6^5,6^6-hexahydro-1^1H-8-oxa-2(4,2)-thiazola-1(5,3)-indola-6(1,3)-pyridazinacycloundecaphane-4-yl)-2-methylcyclopropane-1-carboxamide] | 6 | 10 | –
6 | CCn1c(-c2cc(-c3ccc(CN4CC[C@@H](F)C4)cc3)cnc2[C@H](C)OC)c2c3cc(ccc31)-c1csc(n1)C[C@H](NC(=O)[C@H]1C[C@@H]1C)C(=O)N1CCC[C@H](N1)C(=O)OCC(C)(C)C2 (atropisomer, axis not shown) [Compound 6, (1S,2S)-N-((6^3S,4S,Z)-1^1-ethyl-1^2-(5-(4-(((R)-3-fluoropyrrolidin-1-yl)methyl)phenyl)-2-((S)-1-methoxyethyl)pyridin-3-yl)-10,10-dimethyl-5,7-dioxo-6^1,6^2,6^3,6^4,6^5,6^6-hexahydro-1^1H-8-oxa-2(4,2)-thiazola-1(5,3)-indola-6(1,3)-pyridazinacycloundecaphane-4-yl)-2-methylcyclopropane-1-carboxamide] | 13 | 23 | –
7 | CCn1c(-c2cc(-c3ccc(CN4CCC(F)(F)CC4)cc3)cnc2[C@H](C)OC)c2c3cc(ccc31)-c1csc(n1)C[C@H](NC(=O)[C@H]1C[C@@H]1C)C(=O)N1CCC[C@H](N1)C(=O)OCC(C)(C)C2 (atropisomer, axis not shown) [Compound 7, (1S,2S)-N-((6^3S,4S,Z)-1^2-(5-(4-((4,4-difluoropiperidin-1-yl)methyl)phenyl)-2-((S)-1-methoxyethyl)pyridin-3-yl)-1^1-ethyl-10,10-dimethyl-5,7-dioxo-6^1,6^2,6^3,6^4,6^5,6^6-hexahydro-1^1H-8-oxa-2(4,2)-thiazola-1(5,3)-indola-6(1,3)-pyridazinacycloundecaphane-4-yl)-2-methylcyclopropane-1-carboxamide] | 128 | 159 | –
8 | CCn1c(-c2cc(-c3ccc(CN4CCN(C)CC4)cc3)cnc2[C@H](C)OC)c2c3cc(ccc31)-c1csc(n1)C[C@H](NC(=O)[C@H]1C[C@@H]1C)C(=O)N1CCC[C@H](N1)C(=O)OCC(C)(C)C2 (atropisomer, axis not shown) [Compound 8, (1S,2S)-N-((6^3S,4S,Z)-1^1-ethyl-1^2-(2-((S)-1-methoxyethyl)-5-(4-((4-methylpiperazin-1-yl)methyl)phenyl)pyridin-3-yl)-10,10-dimethyl-5,7-dioxo-6^1,6^2,6^3,6^4,6^5,6^6-hexahydro-1^1H-8-oxa-2(4,2)-thiazola-1(5,3)-indola-6(1,3)-pyridazinacycloundecaphane-4-yl)-2-methylcyclopropane-1-carboxamide] | 0.7 | 1.4 | –

The next lines start with the values.

Row | IC50 (AsPC-1 (G12D); [1]) [nM] | IC50 (SW480 (G12V)) [nM] | IC50 (AsPC-1 (G12D); AsPC-1 pancreas cell line) [nM] | Compound
9 | – | – | 32 | CCn1c(-c2cc(-c3cc(C4COCCN4C)on3)cnc2C(C)OC)c2c3cc(ccc31)-c1csc(n1)CC(NC(=O)C1C(C)C1C)C(=O)N1CCCC(N1)C(=O)OCC(C)(C)C2 [Compound 33′, (1r,2R,3S)-N-((6^3S,4S,Z)-1^1-ethyl-1^2-(2-((S)-1-methoxyethyl)-5-(5-((R)-4-methylmorpholin-3-yl)isoxazol-3-yl)pyridin-3-yl)-10,10-dimethyl-5,7-dioxo-6^1,6^2,6^3,6^4,6^5,6^6-hexahydro-1^1H-8-oxa-2(4,2)-thiazola-1(5,3)-indola-6(1,3)-pyridazinacycloundecaphane-4-yl)-2,3-dimethylcyclopropane-1-carboxamide]
10 | – | – | 116 | CCn1c(-c2cc(-c3cc(C4(C)CN(C)C4)on3)cnc2C(C)OC)c2c3cc(ccc31)-c1csc(n1)CC(NC(=O)C1C(C)C1C)C(=O)N1CCCC(N1)C(=O)OCC(C)(C)C2 [Compound 34′, (1r,2R,3S)-N-((6^3S,4S,Z)-1^2-(5-(5-(1,3-dimethylazetidin-3-yl)isoxazol-3-yl)-2-((S)-1-methoxyethyl)pyridin-3-yl)-1^1-ethyl-10,10-dimethyl-5,7-dioxo-6^1,6^2,6^3,6^4,6^5,6^6-hexahydro-1^1H-8-oxa-2(4,2)-thiazola-1(5,3)-indola-6(1,3)-pyridazinacycloundecaphane-4-yl)-2,3-dimethylcyclopropane-1-carboxamide]
11 | – | – | 1020 | (1S,2S)-N-((6^3S,4S,Z)-1^1-ethyl-1^2-(2-((S)-1-methoxyethyl)-5-(1-(2-morpholinoethyl)-1H-pyrazol-4-yl)pyridin-3-yl)-10,10-dimethyl-5,7-dioxo-6^1,6^2,6^3,6^4,6^5,6^6-hexahydro-1^1H-8-oxa-2(4,2)-thiazola-1(5,3)-indola-6(1,3)-pyridazinacycloundecaphane-4-yl)-2-methylcyclopropane-1-carboxamide [Compound 15′]
12 | – | – | 53 | (1S,2S)-N-((6^3S,4S,Z)-1^1-ethyl-1^2-(2-((S)-1-methoxyethyl)-5-(5-(1-methylazetidin-3-yl)isoxazol-3-yl)pyridin-3-yl)-10,10-dimethyl-5,7-dioxo-6^1,6^2,6^3,6^4,6^5,6^6-hexahydro-1^1H-8-oxa-2(4,2)-thiazola-1(5,3)-indola-6(1,3)-pyridazinacycloundecaphane-4-yl)-2-methylcyclopropane-1-carboxamide [Compound 31′]
13 | – | – | 60 | (1S,2S)-N-((6^3S,4S,Z)-1^1-ethyl-1^2-(2-((S)-1-methoxyethyl)-5-(5-(1-methylpiperidin-4-yl)isoxazol-3-yl)pyridin-3-yl)-10,10-dimethyl-5,7-dioxo-6^1,6^2,6^3,6^4,6^5,6^6-hexahydro-1^1H-8-oxa-2(4,2)-thiazola-1(5,3)-indola-6(1,3)-pyridazinacycloundecaphane-4-yl)-2-methylcyclopropane-1-carboxamide [Compound 30′]
